{
  "source": "patent US9063143B2",
  "about": "“Cancer platinum resistance detection and sensitization method” (University of South Florida, priority 2008, dated 2015)",
  "assay_in_all_cases": "MTT cell proliferation assay, cisplatin resistance",
  "format_in_all_cases": "cell-based",
  "conditions_in_all_cases": "MTT proliferation rate at 2 μg/mL",
  "key": {"[1]": {"test_system": "A2008 ovarian cancer cell line", "experimental": "(§1) Ovarian cancer cell lines (C13, OV2008, A2780S, A2780CP, IGROV1, T8, A2008, IOSER, and OVCAR5) were grown in RPMI-1640 supplemented with 10% fetal bovine serum, 1% sodium pyruvate, and 1% nonessential amino acids. IOSER cells were grown in 1:1 MCBD105 and Medium 199, HEPES, Bovine Pituitary Extract, Insulin, hEGF, hydrocortisone and 15% FBS. All tissue culture reagents were obtained from Sigma Aldrich (St Louis, Mo.). Cells were maintained in a CO2 incubator at 37° C. and subcultured at 70% confluence. The cell lines consist of two from the NCI60 panel: IGR-OV1 (doubling time 31) and OVCAR-5 (doubling time 48.8). Several cell lines have mother/daughter relationships including A2008 and daughter C13; as well as A2780S/A2780CP.\n(§2) To induce the development of platinum-resistance, the nine ovarian cancer cell lines were subjected to serial treatments with increasing dose cisplatin (Group A: 1 and 3 μg/mL, Group B: 2 and 4 μg/mL, and Group C: 3 and 5 μg/mL) using a protocol previously described by Hong et al (Antisense Bcl2 oligonucleotide in cisplatin-resistant bladder cancer cell lines. BJU Int. 2002 July; 90(1):113-7). For each of the 9 cell lines, three different dosage schedules were used: Schedule A—3 treatment/recovery cycles at 1 μg/mL, followed by 3 treatment/recovery cycles at 3 μg/mL; Schedule B—3 treatment/recovery cycles at 2 μg/mL, followed by 3 treatment/recovery cycles at 4 μg/mL; Schedule C—3 treatment/recovery cycles at 3 μg/mL, followed by 3 treatment/recovery cycles at 5 μg/mL. After each treatment, cells were allowed to recover before re-treatment. Gene expression analysis was performed prior to treatment, after 3 and 6 treatments. The experiment design and notations used for each treatment schedule are outlined in Table 1.\n(§3) Thus, for each of the 9 cell lines, 3 different starting doses of cisplatin were used with three different recovery cycles, such that a total of 162 treatment/recovery cycles were induced. Increasing platinum-resistance was confirmed by MTT cell proliferation assays prior to cisplatin treatment, and after 3 and 6 treatment/recovery cycles (for each treatment schedule).\n(§4) MTT solution was produced by dissolving 3-(4,5-Dimethylthiazol-2-yl)-2,5-diphenyltetrazolium bromide (MTT; Sigma, St. Louis, Mo., USA) in phosphate-buffered saline (PBS; 5 mg/mL). Cells (1×10^3) were incubated with 100 μL of culture medium for 48 h in 96-well plates, and 100 μL of MTT solution with RPMI media in a 1:10 concentration was added to each well. After 4 h of incubation, medium was decanted. 100 μL of acidified isopropanol was added to each well. […] MTT assays were performed independently in triplicate per each experimental time point and means reported. For each cell line at each time-point for each schedule, an IC50 was calculated using MTT assay, as well as a percent cell survival at a fixed cisplatin concentration (based upon the mid-point of the log-phase of the dose-response curve for each cell line at baseline), seen in Table 2.\n(§5) Prior to treatment (baseline), and at each dose level following treatment (3 and 6 treatment/recovery cycles) and cell recovery, RNA was extracted and genome-wide expression analysis performed using U133 plus 2.0 Affymetrix chips and cisplatin-resistance was quantified using MTT assay. In parallel, at each of these time-points, RNA was extracted and genome-wide expression analysis performed using U133 plus 2.0 Affymetrix chips. Array analysis was performed on 72 samples. Following recovery from each dose level, cells were evaluated for platinum-resistance using MTT proliferation assay, seen in Table 3. Cell line recovery was defined as the time taken for the cells to repopulate in a normal fashion (to reach 70% confluence in 48 hours). Cell line proliferation rate at 2 μg/mL was used as a measure of resistance."}, "[2]": {"test_system": "A2780CP ovarian cancer cell line", "experimental": "as §1, §2, §3, §4, §5"}, "[3]": {"test_system": "A2780S ovarian cancer cell line", "experimental": "as §1, §2, §3, §4, §5"}, "[4]": {"test_system": "C13 ovarian cancer cell line", "experimental": "as §1, §2, §3, §4, §5"}, "[5]": {"test_system": "IGROV1 ovarian cancer cell line", "experimental": "as §1, §2, §3, §4, §5"}, "IOSER cells": {"test_system": "IOSER cells", "experimental": "as §1, §2, §3, §4, §5"}, "[6]": {"test_system": "OV2008 ovarian cancer cell line", "experimental": "as §1, §2, §3, §4, §5"}, "[7]": {"test_system": "OVCAR5 ovarian cancer cell line", "experimental": "as §1, §2, §3, §4, §5"}, "[8]": {"test_system": "T8 ovarian cancer cell line", "experimental": "as §1, §2, §3, §4, §5"}},
  "data": [
    {"smiles": "N.N.[Cl][Pt][Cl]", "note": "[cisplatin]", "values": [
      {"measurement": "Cell population measurements", "setting": "[1]; A2008 after cisplatin regimen 1.33", "value": 19},
      {"measurement": "Cell population measurements", "setting": "[1]; A2008 after cisplatin regimen 2.33", "value": 33},
      {"measurement": "Cell population measurements", "setting": "[1]; A2008 after cisplatin regimen 3.33", "value": 25},
      {"measurement": "Cell population measurements", "setting": "[1]; A2008 after cisplatin regimen 3.36", "value": 25.6},
      {"measurement": "Cell population measurements", "setting": "[1]; A2008 after cisplatin regimen 4.36", "value": 29},
      {"measurement": "Cell population measurements", "setting": "[1]; A2008 after cisplatin regimen 5.36", "value": 37},
      {"measurement": "Cell population measurements", "setting": "[2]; A2780CP after cisplatin regimen 1.33", "value": 84},
      {"measurement": "Cell population measurements", "setting": "[2]; A2780CP after cisplatin regimen 2.33", "value": 100},
      {"measurement": "Cell population measurements", "setting": "[2]; A2780CP after cisplatin regimen 3.33", "value": 91},
      {"measurement": "Cell population measurements", "setting": "[2]; A2780CP after cisplatin regimen 3.36", "value": 100},
      {"measurement": "Cell population measurements", "setting": "[2]; A2780CP after cisplatin regimen 4.36", "value": 83},
      {"measurement": "Cell population measurements", "setting": "[2]; A2780CP after cisplatin regimen 5.36", "value": 98},
      {"measurement": "Cell population measurements", "setting": "[3]; A2780S after cisplatin regimen 1.33", "value": 26},
      {"measurement": "Cell population measurements", "setting": "[3]; A2780S after cisplatin regimen 2.33", "value": 39},
      {"measurement": "Cell population measurements", "setting": "[3]; A2780S after cisplatin regimen 3.33", "value": 64},
      {"measurement": "Cell population measurements", "setting": "[3]; A2780S after cisplatin regimen 3.36", "value": 30.5},
      {"measurement": "Cell population measurements", "setting": "[3]; A2780S after cisplatin regimen 4.36", "value": 87},
      {"measurement": "Cell population measurements", "setting": "[3]; A2780S after cisplatin regimen 5.36", "value": 72},
      {"measurement": "Cell population measurements", "setting": "[4]; C13 after cisplatin regimen 1.33", "value": 83},
      {"measurement": "Cell population measurements", "setting": "[4]; C13 after cisplatin regimen 2.33", "value": 73},
      {"measurement": "Cell population measurements", "setting": "[4]; C13 after cisplatin regimen 3.33", "value": 71},
      {"measurement": "Cell population measurements", "setting": "[4]; C13 after cisplatin regimen 3.36", "value": 53},
      {"measurement": "Cell population measurements", "setting": "[4]; C13 after cisplatin regimen 4.36", "value": 91},
      {"measurement": "Cell population measurements", "setting": "[4]; C13 after cisplatin regimen 5.36", "value": 67},
      {"measurement": "Cell population measurements", "setting": "[5]; IGROV1 after cisplatin regimen 1.33", "value": 69},
      {"measurement": "Cell population measurements", "setting": "[5]; IGROV1 after cisplatin regimen 2.33", "value": 48},
      {"measurement": "Cell population measurements", "setting": "[5]; IGROV1 after cisplatin regimen 3.33", "value": 55},
      {"measurement": "Cell population measurements", "setting": "[5]; IGROV1 after cisplatin regimen 3.36", "value": 68.3},
      {"measurement": "Cell population measurements", "setting": "[5]; IGROV1 after cisplatin regimen 4.36", "value": 69},
      {"measurement": "Cell population measurements", "setting": "[5]; IGROV1 after cisplatin regimen 5.36", "value": 58},
      {"measurement": "Cell population measurements", "setting": "IOSER cells; IOSER after cisplatin regimen 1.33", "value": 62},
      {"measurement": "Cell population measurements", "setting": "IOSER cells; IOSER after cisplatin regimen 2.33", "value": 70},
      {"measurement": "Cell population measurements", "setting": "IOSER cells; IOSER after cisplatin regimen 3.33", "value": 79},
      {"measurement": "Cell population measurements", "setting": "IOSER cells; IOSER after cisplatin regimen 3.36", "value": 89},
      {"measurement": "Cell population measurements", "setting": "IOSER cells; IOSER after cisplatin regimen 4.36", "value": 71},
      {"measurement": "Cell population measurements", "setting": "IOSER cells; IOSER after cisplatin regimen 5.36", "value": 84},
      {"measurement": "Cell population measurements", "setting": "[6]; OV2008 after cisplatin regimen 1.33", "value": 62},
      {"measurement": "Cell population measurements", "setting": "[6]; OV2008 after cisplatin regimen 2.33", "value": 54},
      {"measurement": "Cell population measurements", "setting": "[6]; OV2008 after cisplatin regimen 3.33", "value": 67},
      {"measurement": "Cell population measurements", "setting": "[6]; OV2008 after cisplatin regimen 3.36", "value": 64.8},
      {"measurement": "Cell population measurements", "setting": "[6]; OV2008 after cisplatin regimen 4.36", "value": 98},
      {"measurement": "Cell population measurements", "setting": "[6]; OV2008 after cisplatin regimen 5.36", "value": 86},
      {"measurement": "Cell population measurements", "setting": "[7]; OVCAR5 after cisplatin regimen 1.33", "value": 49},
      {"measurement": "Cell population measurements", "setting": "[7]; OVCAR5 after cisplatin regimen 2.33", "value": 41},
      {"measurement": "Cell population measurements", "setting": "[7]; OVCAR5 after cisplatin regimen 3.33", "value": 47},
      {"measurement": "Cell population measurements", "setting": "[7]; OVCAR5 after cisplatin regimen 3.36", "value": 66.5},
      {"measurement": "Cell population measurements", "setting": "[7]; OVCAR5 after cisplatin regimen 4.36", "value": 69},
      {"measurement": "Cell population measurements", "setting": "[7]; OVCAR5 after cisplatin regimen 5.36", "value": 63},
      {"measurement": "Cell population measurements", "setting": "[8]; T8 after cisplatin regimen 1.33", "value": 42},
      {"measurement": "Cell population measurements", "setting": "[8]; T8 after cisplatin regimen 2.33", "value": 64},
      {"measurement": "Cell population measurements", "setting": "[8]; T8 after cisplatin regimen 3.33", "value": 67},
      {"measurement": "Cell population measurements", "setting": "[8]; T8 after cisplatin regimen 3.36", "value": 68.4},
      {"measurement": "Cell population measurements", "setting": "[8]; T8 after cisplatin regimen 4.36", "value": 69},
      {"measurement": "Cell population measurements", "setting": "[8]; T8 after cisplatin regimen 5.36", "value": 62}
    ]}
  ]
}
